This note sets out measurements from US5373020A, “Substituted 5-(2-((2-aryl-2-hydroxyethyl)amino)propyl)-1,3-benzodioxoles” (American Cyanamid Company, priority 1993, dated 1994).

One test has as its system ob/ob mice. The test can be described thus: Plasma glucose, compound in chow, obese mice. Format: in vivo, mouse (C57 B1/6J ob/ob). How it is done:
The compounds of this invention were tested for hypoglycemic and anti-obesity activity according to the following procedure.
Obese mice (C57 B1/6J (ob/ob)), and/or diabetic mice (C57 B1/KsJ (db/db)) were obtained from Jackson Laboratories, Bar Harbor, Maine. Obese rats (fa/fa) were obtained from Charles River Laboratories, Wilmington, Mass. Obese mice were 8 weeks of age and diabetic mice were 9 weeks of age at the start of the test. Obese rats were 12-14 weeks of age at the start.
The test compounds were dissolved in methanol, mixed with powdered Purina rodent chow on a weight of compound to weight of chow basis and thoroughly dried.
Groups of 6 control mice or rats received vehicle (methanol) treated chow.
[…] Thus, a 40 g mouse, fed the test compound at a concentration of 0.02 percent of the diet, would receive a dose of 20 mg/kg/day if it ate 4 g of chow per day.
The mice or rats were weighed before the first treatment and once at the end of each indicated treatment period.
Blood samples were collected before the first treatment and once at the end of each indicated treatment period by retro-orbital puncture using heparinized capillary tubes.
Plasma was separated by centrifugation in a Beckman microfuge for 5 minutes. Plasma glucose concentrations were determined with the Beckman glucose analyzer which uses a glucose oxidase method.

The target in another test is T1, β3-receptors (Rattus norvegicus, UniProt P26255).
T1 construct: Rat epididymal fat pads were excised and placed in 0.9% saline; from tissue; host or cells: collagenase-isolated adipocytes from rat epididymal fat pads
T1 sequence (P26255 whole entry): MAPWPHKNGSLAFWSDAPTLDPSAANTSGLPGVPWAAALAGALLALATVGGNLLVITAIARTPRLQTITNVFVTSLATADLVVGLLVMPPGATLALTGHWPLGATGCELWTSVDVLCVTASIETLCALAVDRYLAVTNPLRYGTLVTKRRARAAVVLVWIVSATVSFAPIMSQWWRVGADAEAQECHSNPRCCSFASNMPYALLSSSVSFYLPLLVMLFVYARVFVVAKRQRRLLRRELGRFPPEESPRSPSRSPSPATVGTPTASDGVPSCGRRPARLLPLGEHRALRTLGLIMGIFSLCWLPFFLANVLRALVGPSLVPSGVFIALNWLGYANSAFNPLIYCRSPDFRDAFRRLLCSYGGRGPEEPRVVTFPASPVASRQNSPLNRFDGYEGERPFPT
The test can be described thus: Stimulation of adipocyte lipolysis (β3-effect). Type of test: cell-based. As to the method: β-Adrenergic receptors can be divided into β1, β2 and β3 -subtypes. Activation of β1 -receptors invokes increases in heart rate while activation of β2 -receptors stimulates glycogen breakdown in muscle and thereby prevents glycogen synthesis. Activation of β3 -receptors stimulates lipolysis (the breakdown of adipose tissue triglycerides to glycerol and free fatty acids), and thereby promotes the loss of fat mass.
The β3 -effect of the compounds was determined by their ability to stimulate adipocyte lipolysis. Rat epididymal fat pads were excised and placed in 0.9% saline. Four grams of tissue were transferred to a flask with 20 ml of aerated Krebs-Henseleit bicarbonate (KHB) buffer containing 3% fatty acid-free bovine serum albumin to which 75 mg of crude bacterial collagenase (Worthington) had been added. The tissue was incubated for about 45 minutes at 37° C. with gentle shaking. The cells were then washed three times with two volumes of KHB buffer, filtered through two layers of gauze, and brought to a final volume of 80 ml with KHB buffer. One ml aliquots of the cell suspension were added to plastic test tubes containing the appropriate additions of vehicle or compound. The cells were gassed for 1 minute with 95% O2 -5% CO2, capped, and incubated at 37° C. with continuous shaking for a total of 30 minutes. The reaction was stopped by adding 0.1 ml of 30% perchloric acid and 0.1 ml of chloroform. After centrifugation, 0.5 ml of supernatant was transferred to another test tube and neutralized with 0.04 ml of 3M K2 CO3 -0.5M triethanolamine. The amount-of glycerol generated from the hydrolysis of endogenous triglycerides was determined in a coupled-enzyme spectrophotometric assay. […] The test tubes were incubated for 40 minutes at 37° C. with constant shaking. […] This value was corrected for the amount of NADH generated in the absence of glycerol by incubating another aliquot of the neutralized extract with the same assay mixture but without glycerokinase.

The mark [1] stands for this setting: dose 0.002 % wt of chow, week 0 (before treatment).
The mark [2] stands for this setting: dose 0.002 % wt of chow, week 1.
The mark [3] stands for this setting: dose 0.005 % wt of chow, week 0 (before treatment).
[4] abbreviates: dose 0.005 % wt of chow, week 1.
Where [5] appears, read: dose 0.02 % wt of chow, week 0 (before treatment).

As to `C[C@H](Cc1ccc2c(c1)OCO2)NC[C@H](O)c1cccc(Cl)c1` (racemic) [(R*,R*)-(+/-)-alpha-(((2-(1,3-benzodioxol-5-yl)-1-methylethyl)amino)methyl)-3-chlorobenzenemethanol mixture with (R*,S*)-(+/-)alpha-(((2-(1,3-benzodioxol-5-yl)-1-methylethyl)amino)methyl)-3-chlorobenzenemethanol, reference compound], the “Plasma Glucose Levels” value with ob/ob mice (setting [1]) was 226 mg/100 ml; with ob/ob mice (setting [2]), 234 mg/100 ml; with ob/ob mice (setting [3]), 227 mg/100 ml; in the test on ob/ob mice (setting [4]), 175 mg/100 ml; in the test with ob/ob mice (setting [5]) it was 227 mg/100 ml; with ob/ob mice (dose 0.02 % wt of chow, week 1) it was 149 mg/100 ml.
With `COC(=O)C1(C(=O)OC)Oc2ccc(C[C@@H](C)NC[C@@H](O)c3cccc(Cl)c3)cc2O1` (relative stereo) [(R*,S*)-(+/-)-5(2-((2-(3-chlorophenyl))-2-hydroxyethyl)amino)propyl)-1,3-benzodioxole-2,2-dicarboxylic acid, dimethyl ester], the “Plasma Glucose Levels” value was 218 mg/100 ml in the test on ob/ob mice (setting [3]); 162 mg/100 ml in the test on ob/ob mice (dose 0.005 % wt of chow, week 5); 174 mg/100 ml in the test on ob/ob mice (dose 0.005 % wt of chow, week 10); 219 mg/100 ml in the test on ob/ob mice (setting [5]); 135 mg/100 ml with ob/ob mice (dose 0.02 % wt of chow, week 5); 153 mg/100 ml in the test on ob/ob mice (dose 0.02 % wt of chow, week 10).
As to `C[C@@H](Cc1ccc2c(c1)OCO2)NC[C@H](O)c1cccc(Cl)c1` (relative stereo) [(R*,S*)-(+/-)-alpha-(((2-(1,3-benzodioxol-5-yl)-1-methylethyl)amino)methyl)-3-chlorobenzenemethanol, reference compound], the “Plasma Glucose Levels” value with ob/ob mice (setting [1]) stood at 228 mg/100 ml; in the test with ob/ob mice (setting [2]), 204 mg/100 ml; in the test on ob/ob mice (setting [3]) it was 226 mg/100 ml; with ob/ob mice (setting [4]) it was 176 mg/100 ml; in the test on ob/ob mice (setting [5]) it was 229 mg/100 ml; in the test with ob/ob mice (dose 0.02 % wt of chow, week 1) it was 128 mg/100 ml.
`COC(=O)C1(C(=O)OC)Oc2ccc(C[C@@H](C)NC[C@H](O)c3cccc(Cl)c3)cc2O1` (stereo in doubt) [CL5, (R,R)(+/-)5-(2-((2-(3-chlorophenyl)-2-hydroxyethyl)-amino)propyl)-1,3-benzodioxole-2,2-dicarboxylic acid, dimethyl ester hydrobomide]: on β3-receptors (RR vs SS enantiomer, lipolysis), the “relative β3 potency of RR over SS form” value was 36 fold.
`COC(=O)C1(C(=O)OC)Oc2ccc(C[C@H](C)NC[C@@H](O)c3cccc(Cl)c3)cc2O1` (stereo in doubt) [CL6, (S,S)(+/-)5-(2-((2-(3-chlorophenyl)-2-hydroxyethyl)-amino)propyl)-1,3-benzodioxole-2,2-dicarboxylic acid, dimethyl ester hydrobomide]: the EC50 at β3-receptors (read-out: Lipolysis (β3) (EC50)) came to 290 nM.
